This is an account of results in US11549123B2, “Plant EPSP synthases and methods of use” (PIONEER HI-BRED INTERNATIONAL, INC., priority 2015, dated 2023).

The target of experiment [1] is T1, Zea mays EPSPS, native, SEQ ID NO:2 (Zea mays, UniProt O24566).
T1 construct: E. coli BL21(DE3), Ni-NTA purified
T1 sequence (O24566 with tags, fused parts or gaps): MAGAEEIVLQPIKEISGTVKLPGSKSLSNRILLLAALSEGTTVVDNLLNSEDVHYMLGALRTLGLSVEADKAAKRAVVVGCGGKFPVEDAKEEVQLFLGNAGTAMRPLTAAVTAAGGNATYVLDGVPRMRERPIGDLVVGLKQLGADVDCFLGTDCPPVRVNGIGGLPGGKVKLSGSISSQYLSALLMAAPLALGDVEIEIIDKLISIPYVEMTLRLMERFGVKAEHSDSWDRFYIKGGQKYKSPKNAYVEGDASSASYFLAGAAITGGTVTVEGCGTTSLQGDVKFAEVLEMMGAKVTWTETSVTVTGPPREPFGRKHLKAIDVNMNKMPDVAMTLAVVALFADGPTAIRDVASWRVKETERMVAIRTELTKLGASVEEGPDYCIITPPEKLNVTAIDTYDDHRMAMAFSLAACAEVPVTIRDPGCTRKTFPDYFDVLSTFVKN
The experiment is described as follows: Rapid two-rate method for (kcat/KM)*KI (30 uM PEP, with or without 1 mM glyphosate), native maize. Format: biochemical. As to conditions: Zm native, [E] 0.007 uM, [Gly] 0.5 uM. An excerpt: In the Michaelis-Menten equation for steady state reaction velocity with competitive inhibition, the term (kcat/KM)*KI cannot be isolated due to the KM and [S] terms in the denominator. However, if two rate measurements are made at different inhibitor concentrations, those terms can be eliminated by subtraction and (kcat/KM)*KI isolated, as follows:
[formula] where v0 and v1 are initial velocities without and with inhibitor but at the same substrate and enzyme concentrations. Although Equations 2 and 3 are equally valid, to generate the data in Table 1, rate measurement was performed with and without inhibitor using Equation 3. Source of Reagents, Enzyme and Variants
EPSPS activity was determined by quantifying the phosphate generated by the reaction. Release of phosphate was coupled to reaction with MESG, catalyzed by purine-nucleoside phosphorylase, using standard methods. The absorbance change that occurs was monitored continuously at 360 nm, where the extinction is 11,200 M-1 cm-1, with a Spectramax plate reader (Molecular Devices). […] The enzyme concentration was adjusted so as to generate sufficient signal without exceeding the limit for linear initial reaction rates. […]
There are several practical considerations for accurately estimating (kcat/KM)*KI with the rapid method. […] Conditions can be set so that variants with a pre-determined minimal fitness level are accurately quantified. […]

Experiment [2] concerns the target Zea mays EPSPS variant WT-FS-E2 (102A 302S 391G 438R I208L) (Zea mays, UniProt O24566, E301S/E390G/G101A/I207L/V437R). The experiment in a line: EPSPS substrate saturation kinetics, WT-FS-E2. Format: biochemical. As for the experimental part: EPSPS activity was determined by quantifying the phosphate generated from the EPSPS reaction. Release of inorganic phosphate was coupled to reaction with 2-amino-6-mercapto-7-methylpurine ribonucleoside, catalyzed by purine-nucleoside phosphorylase (M R Webb, Proc. Natl. Acad. Sci. 89:4884-4887, 1992). The absorbance change that occurs was monitored at 360 nm, where the extinction is 11,200 M^−1 cm^−1, with a Spectramax plate reader (Molecular Devices). To determine kinetic parameters, the varied substrate was present at seven concentrations (the eighth being the blank, containing no substrate) ranging from 4 to 400 uM and the unvaried substrate present at saturation. […] Reactions were monitored with a Spectramax plate reader. […] KI was then calculated from the following form of the Michaelis-Menten equation for competitive inhibition: KI=KM[I]/(KM app−KM) KM approximates the dissociation constant of the enzyme-substrate complex while kcat is the rate of conversion of substrate to product when the substrate concentration is saturating. kcat/KM is a widely accepted parameter for catalytic efficiency when substrate concentration is low (˜KM). […] The parameter kcat/KM×KI is used to quantify both catalytic efficiency and insensitivity and thus the overall fitness of the enzyme. […]

Zea mays EPSPS variant WT-FS-E2 (102A 302S 391G 438R I208L), sequence (O24566 entry or part of it G101A/I207L/E301S/E390G/V437R): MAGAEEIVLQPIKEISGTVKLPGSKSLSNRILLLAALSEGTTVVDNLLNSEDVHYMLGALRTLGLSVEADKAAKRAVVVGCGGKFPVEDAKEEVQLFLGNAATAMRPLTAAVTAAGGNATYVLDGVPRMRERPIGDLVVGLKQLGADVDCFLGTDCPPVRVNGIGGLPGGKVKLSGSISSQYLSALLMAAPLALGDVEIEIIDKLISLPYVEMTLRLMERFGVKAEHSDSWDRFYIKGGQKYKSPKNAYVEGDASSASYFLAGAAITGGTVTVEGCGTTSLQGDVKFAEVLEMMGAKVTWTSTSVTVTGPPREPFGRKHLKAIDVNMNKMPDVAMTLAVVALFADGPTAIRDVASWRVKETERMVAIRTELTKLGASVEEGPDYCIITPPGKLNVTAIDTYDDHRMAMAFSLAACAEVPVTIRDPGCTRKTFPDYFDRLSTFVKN

Take `O=C(O)CNCP(=O)(O)O` [glyphosate, N-phosphonomethylglycine]: the “(kcat/KM)*KI” value in experiment [1] stood at 11; in experiment [2] (PEP as substrate, glyphosate as inhibitor), 4512. In experiment [2], this molecule yielded a Ki of 663 µM.
